Results published in patent US9968716B2, “Drug-eluting stent graft” (Ono Pharmaceutical Co., Ltd., priority 2013, dated 2018).
Marks after values point to notes of the source that are not given here.

Columns and labels:
[1] = system: normal human aortic smooth muscle cells (AoSMCs); assay: Promotion of cAMP production in AoSMC culture; type: cell-based; conditions: Ao-SMCs, 72 hours of culture
Protocol: Cells (produceed by Lonza, purchased from Takara Bio Inc., product name: normal human aortic smooth muscle cells (AoSMCs), product code: CC-2571) were cultured in a medium (produced by Lonza, purchased from Takara Bio Inc., product name: smooth muscle cell medium kit-2 (5% FBS), SmGM™-2 Bullet Kit™, product code: CC-3182) for 72 hours. To the culture medium at the number of cells of 4.0×10^5 cells which was rendered to be serum free, Compound 1 dissolved in DMSO was added so as to be 100 nM or 1000 nM. As a control, the same amount of DMSO was added to the culture medium. After 72 hours of culture, the supernatant was recovered and cAMP in the culture medium was measured with the cAMP EIA kit Code. 581001.

NHDFs and HUVECs = assay: Induction of internal regenerating factors in co-culture with NHDFs and HUVECs; type: cell-based, human

## O=C(O)COc1cccc2c1CCC=C2CCO/N=C(\c1ccccc1)c1cccnc1 [Compound 1, (E)-[5-[2-[1-phenyl-1-(3-pyridyl)methylidenaminoxy]ethyl]-7,8-dihydronaphthalen-1-yloxy]acetic acid]
[1]; 100 nM
  cAMP in the culture medium, Average: 50.6* nM
[1]; 1000 nM
  cAMP in the culture medium, Average: 105.4* nM
NHDFs and HUVECs
  induction of internal regenerating factors (HGF, VEGF, EGF, IGF-1, SDF-1, G-CSF): induce
